According to patent publication US20240383886A1, “Protein Tyrosine Phosphatase Degraders and Methods of Use Thereof” (CALICO LIFE SCIENCES LLC, priority 2019, published 2024):

Tests used:
PTPN2 [1] = experiment: HiBiT-Degradation B16F10.4 PTPN2; type: cell-based; conditions: B16F10.4 cells, 24.0 hours
PTPN2 [2] = target: T1, PTPN2 (Homo sapiens, UniProt P17706); experiment: HiBiT-Degradation 293T.109 PTPN2 (Nano-Glo HiBiT Lytic Assay); type: cell-based; conditions: 293T.109 (HiBiT-PTPN2) cells, 24.0 hours
T1 construct: expressed in transfected cells; host or cells: 293T (293T.109 HiBiT-PTPN2 line; parental 293T WT from ATCC)
T1 sequence (P17706 1-415): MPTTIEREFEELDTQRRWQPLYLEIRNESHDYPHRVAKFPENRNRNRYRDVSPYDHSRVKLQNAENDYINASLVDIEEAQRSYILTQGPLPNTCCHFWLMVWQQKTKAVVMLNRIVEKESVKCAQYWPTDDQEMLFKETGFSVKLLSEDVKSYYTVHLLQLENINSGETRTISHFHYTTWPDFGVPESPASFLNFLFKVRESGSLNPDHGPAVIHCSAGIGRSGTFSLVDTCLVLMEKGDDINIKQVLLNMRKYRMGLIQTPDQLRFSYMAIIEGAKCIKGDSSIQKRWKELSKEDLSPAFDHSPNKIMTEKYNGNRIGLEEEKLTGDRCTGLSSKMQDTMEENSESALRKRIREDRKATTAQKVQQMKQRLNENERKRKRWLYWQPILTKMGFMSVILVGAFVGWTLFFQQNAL
Method in brief: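 293T cells ectopically expressing N-terminally HiBiT-tagged PTPN2 were seeded at 5000 cells/well. They were treated with an 11-point half-log titration from 10 μM, in duplicate, for 24 hours at 37° C., 5% CO2. Remaining tagged PTPN2 was quantified by lytic HiBiT luminescence against untreated and no-reagent controls.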

DC50 (PTPN2 [1])	DC50 (PTPN2 [2])	Structure (SMILES)
200 to 1000 nM	50 to 200 nM	CC(C)n1c(=O)n(C2CCC(=O)NC2=O)c2ccc(C3CCN(CC(=O)NCCOc4ccc5cc(O)c(N6CC(=O)NS6(=O)=O)c(F)c5c4)CC3)cc21 (stereo not shown) [Example 85, 2-[4-[1-(2,6-dioxo-3-piperidyl)-3-isopropyl-2-oxo-benzimidazol-5-yl]-1-piperidyl]-N-[2-[[8-fluoro-6-hydroxy-7-(1,1,4-trioxo-1,2,5-thiadiazolidin-2-yl)-2-naphthyl]oxy]ethyl]acetamide]
50 to 200 nM	10 to 50 nM	Cn1c(=O)n(C2CCC(=O)NC2=O)c2ccc(C3CCN(C4CC(C(=O)Nc5ccc6c(F)c(N7CC(=O)NS7(=O)=O)c(O)cc6c5)C4)CC3)cc21 (stereo not shown) [Example 86, 3-[4-[1-(2,6-dioxo-3-piperidyl)-3-methyl-2-oxo-benzimidazol-5-yl]-1-piperidyl]-N-[5-fluoro-7-hydroxy-6-(1,1,4-trioxo-1,2,5-thiadiazolidin-2-yl)-2-naphthyl]cyclobutanecarboxamide]
10 to 50 nM	10 to 50 nM	Cn1c(=O)n(C2CCC(=O)NC2=O)c2ccc(C3CCN(C(=O)C(=O)Nc4ccc5c(F)c(N6CC(=O)NS6(=O)=O)c(O)cc5c4)CC3)cc21 (stereo not shown) [Example 87, 2-[4-[1-(2,6-dioxo-3-piperidyl)-3-methyl-2-oxo-benzimidazol-5-yl]-1-piperidyl]-N-[5-fluoro-7-hydroxy-6-(1,1,4-trioxo-1,2,5-thiadiazolidin-2-yl)-2-naphthyl]-2-oxo-acetamide]
50 to 200 nM	50 to 200 nM	Cn1c(=O)n(C2CCC(=O)NC2=O)c2ccc(C3CCN(CC(=O)N4CC=C(c5ccc6cc(O)c(N7CC(=O)NS7(=O)=O)c(F)c6c5)C4)CC3)cc21 (stereo not shown) [Example 88, 3-[5-[1-[2-[3-[8-fluoro-6-hydroxy-7-(1,1,4-trioxo-1,2,5-thiadiazolidin-2-yl)-2-naphthyl]-2,5-dihydropyrrol-1-yl]-2-oxo-ethyl]-4-piperidyl]-3-methyl-2-oxo-benzimidazol-1-yl]piperidine-2,6-dione]
50 to 200 nM	50 to 200 nM	Cn1c(=O)n(C2CCC(=O)NC2=O)c2ccc(C3CCN(CCC(=O)N4CC=C(c5ccc6cc(O)c(N7CC(=O)NS7(=O)=O)c(F)c6c5)C4)CC3)cc21 (stereo not shown) [Example 89, 3-[5-[1-[3-[3-[8-fluoro-6-hydroxy-7-(1,1,4-trioxo-1,2,5-thiadiazolidin-2-yl)-2-naphthyl]-2,5-dihydropyrrol-1-yl]-3-oxo-propyl]-4-piperidyl]-3-methyl-2-oxo-benzimidazol-1-yl]piperidine-2,6-dione]
200 to 1000 nM	50 to 200 nM	Cn1c(=O)n(C2CCC(=O)NC2=O)c2ccc(C3CCN(CC(=O)N4CCC(c5ccc6cc(O)c(N7CC(=O)NS7(=O)=O)c(F)c6c5)C4)CC3)cc21 (stereo not shown) [Example 90, 3-[5-[1-[2-[3-[8-fluoro-6-hydroxy-7-(1,1,4-trioxo-1,2,5-thiadiazolidin-2-yl)-2-naphthyl]pyrrolidin-1-yl]-2-oxo-ethyl]-4-piperidyl]-3-methyl-2-oxo-benzimidazol-1-yl]piperidine-2,6-dione]
50 to 200 nM	10 to 50 nM	Cn1c(=O)n(C2CCC(=O)NC2=O)c2ccc(C3CCN(CCCn4cc(-c5ccc6cc(O)c(N7CC(=O)NS7(=O)=O)c(F)c6c5)cn4)CC3)cc21 (stereo not shown) [Example 91, 3-[5-[1-[3-[4-[8-fluoro-6-hydroxy-7-(1,1,4-trioxo-1,2,5-thiadiazolidin-2-yl)-2-naphthyl]pyrazol-1-yl]propyl]-4-piperidyl]-3-methyl-2-oxo-benzimidazol-1-yl]piperidine-2,6-dione]

Second part, the compound before the results:

Structure (SMILES)	DC50 (PTPN2 [1])	DC50 (PTPN2 [2])
O=C1CCC(N2C(=O)c3cccc(NCc4cn(CCC(=O)Nc5ccc6c(Cl)c(N7CC(=O)NS7(=O)=O)c(O)cc6c5)nn4)c3C2=O)C(=O)N1 (stereo not shown) [Example 69]	≥ 1000 nM	≥ 1000 nM
Cn1c(=O)n(C2CCC(=O)NC2=O)c2ccc(C3CCN(CCCC(=O)Nc4ccc5c(F)c(N6CC(=O)NS6(=O)=O)c(O)cc5c4)CC3)cc21 (stereo not shown) [Example 70]	≥ 1000 nM	≥ 1000 nM
Cn1c(=O)n(C2CCC(=O)NC2=O)c2ccc(C3CCN(C(=O)c4ccc5c(F)c(N6CC(=O)NS6(=O)=O)c(O)cc5c4)CC3)cc21 (stereo not shown) [Example 71]	≥ 1000 nM	≥ 1000 nM
Cn1c(=O)n(C2CCC(=O)NC2=O)c2ccc(C3CCN(CCC(=O)N4CCC(c5ccc6cc(O)c(N7CC(=O)NS7(=O)=O)c(F)c6c5)C4)CC3)cc21 (stereo not shown) [Example 72, 3-[5-[1-[3-[3-[8-fluoro-6-hydroxy-7-(1,1,4-trioxo-1,2,5-thiadiazolidin-2-yl)-2-naphthyl]pyrrolidin-1-yl]-3-oxo-propyl]-4-piperidyl]-3-methyl-2-oxo-benzimidazol-1-yl]piperidine-2,6-dione]	50 to 200 nM	10 to 50 nM
Cn1c(=O)n(C2CCC(=O)NC2=O)c2ccc(C3CCN(C(=O)Cn4cc(-c5ccc6c(F)c(N7CC(=O)NS7(=O)=O)c(O)cc6c5)cn4)CC3(F)F)cc21 (stereo not shown) [Example 73, 3-[5-[3,3-difluoro-1-[2-[4-[5-fluoro-7-hydroxy-6-(1,1,4-trioxo-1,2,5-thiadiazolidin-2-yl)-2-naphthyl]pyrazol-1-yl]acetyl]-4-piperidyl]-3-methyl-2-oxo-benzimidazol-1-yl]piperidine-2,6-dione]	10 to 50 nM	10 to 50 nM
Cn1c(=O)n(C2CCC(=O)NC2=O)c2ccc(C3CCN(C(=O)Cn4cc(-c5ccc6c(F)c(N7CC(=O)NS7(=O)=O)c(O)cc6c5)cn4)CC3)cc21 (stereo not shown) [Example 74, 3-[5-[1-[2-[4-[5-fluoro-7-hydroxy-6-(1,1,4-trioxo-1,2,5-thiadiazolidin-2-yl)-2-naphthyl]pyrazol-1-yl]acetyl]-4-piperidyl]-3-methyl-2-oxo-benzimidazol-1-yl]piperidine-2,6-dione]	50 to 200 nM	< 10 nM
Cn1c(=O)n(C2CCC(=O)NC2=O)c2ccc(-c3ccc(CC(=O)Nc4ccc5c(F)c(N6CC(=O)NS6(=O)=O)c(O)cc5c4)cc3)cc21 (stereo not shown) [Example 77, 2-[4-[1-(2,6-dioxo-3-piperidyl)-3-methyl-2-oxo-benzimidazol-5-yl]phenyl]-N-[5-fluoro-7-hydroxy-6-(1,1,4-trioxo-1,2,5-thiadiazolidin-2-yl)-2-naphthyl]acetamide]	10 to 50 nM	10 to 50 nM
Cn1c(=O)n(C2CCC(=O)NC2=O)c2ccc(N3CCC(CC(=O)Nc4ccc5c(F)c(N6CC(=O)NS6(=O)=O)c(O)cc5c4)CC3)cc21 (stereo not shown) [Example 78, N-(6-(1,1-dioxido-4-oxo-1,2,5-thiadiazolidin-2-yl)-5-fluoro-7-hydroxynaphthalen-2-yl)-2-(1-(1-(2,6-dioxopiperidin-3-yl)-3-methyl-2-oxo-2,3-dihydro-1H-benzo[d]imidazol-5-yl)piperidin-4-yl)acetamide]	10 to 50 nM	10 to 50 nM
Cn1nc(C2CCC(=O)NC2=O)c2ccc(C3CCN(C(=O)Cn4cc(-c5ccc6c(F)c(N7CC(=O)NS7(=O)=O)c(O)cc6c5)cn4)CC3)cc21 (stereo not shown) [Example 79, 3-[6-[1-[2-[4-[5-fluoro-7-hydroxy-6-(1,1,4-trioxo-1,2,5-thiadiazolidin-2-yl)-2-naphthyl]pyrazol-1-yl]acetyl]-4-piperidyl]-1-methyl-indazol-3-yl]piperidine-2,6-dione]	200 to 1000 nM	10 to 50 nM
Cn1c(=O)n(C2CCC(=O)NC2=O)c2ccc(C3CCN(CC(=O)N4CC(Oc5ccc6cc(O)c(N7CC(=O)NS7(=O)=O)c(F)c6c5)C4)CC3(F)F)cc21 (stereo not shown) [Example 80, 3-[5-[3,3-difluoro-1-[2-[3-[[8-fluoro-6-hydroxy-7-(1,1,4-trioxo-1,2,5-thiadiazolidin-2-yl)-2-naphthyl]oxy]azetidin-1-yl]-2-oxo-ethyl]-4-piperidyl]-3-methyl-2-oxo-benzimidazol-1-yl]piperidine-2,6-dione]	50 to 200 nM	10 to 50 nM
Cn1c(=O)n(C2CCC(=O)NC2=O)c2ccc(N3CCC(O)(CC(=O)Nc4ccc5c(F)c(N6CC(=O)NS6(=O)=O)c(O)cc5c4)CC3)cc21 (stereo not shown) [Example 82, 2-[1-[1-(2,6-dioxo-3-piperidyl)-3-methyl-2-oxo-benzimidazol-5-yl]-4-hydroxy-4-piperidyl]-N-[5-fluoro-7-hydroxy-6-(1,1,4-trioxo-1,2,5-thiadiazolidin-2-yl)-2-naphthyl]acetamide]	200 to 1000 nM	< 10 nM
Cn1nc(C2CCC(=O)NC2=O)c2ccc(N3CCC(O)(CC(=O)Nc4ccc5c(F)c(N6CC(=O)NS6(=O)=O)c(O)cc5c4)CC3)cc21 (stereo not shown) [Example 83, 2-[1-[3-(2,6-dioxo-3-piperidyl)-1-methyl-indazol-6-yl]-4-hydroxy-4-piperidyl]-N-[5-fluoro-7-hydroxy-6-(1,1,4-trioxo-1,2,5-thiadiazolidin-2-yl)-2-naphthyl]acetamide]	10 to 50 nM	< 10 nM
Cn1c(=O)n(C2CCC(=O)NC2=O)c2ccc(N3CCC(OCC(=O)Nc4ccc5c(F)c(N6CC(=O)NS6(=O)=O)c(O)cc5c4)CC3)cc21 (stereo not shown) [Example 84, 2-[[1-[1-(2,6-dioxo-3-piperidyl)-3-methyl-2-oxo-benzimidazol-5-yl]-4-piperidyl]oxy]-N-[5-fluoro-7-hydroxy-6-(1,1,4-trioxo-1,2,5-thiadiazolidin-2-yl)-2-naphthyl]acetamide]	50 to 200 nM	10 to 50 nM
